The values that follow come from patent US20260325685A1, “Radiopharmaceutical Compositions Targeting Carbonic Anhydrase IX and Uses Thereof” (RayzeBio, Inc., priority 2023, published 2026).

In one assay the target is T1, human CA-IX (Homo sapiens, UniProt Q16790).
T1 construct: purchased Acro CA9-H82E3
As to the kind of experiment: Surface Plasmon Resonance (SPR) binding kinetics to recombinant human CA-IX (Biacore 8K, single-cycle kinetics, 1:1 binding model). Particulars: for Kd: SPR, 25° C., pH 7.4, read-out: CAIX KD. In a few lines:
(§1)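 First, ligand at 10 μg/mL was captured on streptavidin to 1200-1800 RU, with 180 s injection for CA-IX and 75 s for CA-XII. Next, compound (100-0.39 nM, 9 levels) in PBS-P+ with 1% DMSO was injected. Association lasted 120 s and dissociation 1200 s at 25° C.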

In another assay the target is T2, human CA-XII (Homo sapiens, UniProt O43570).
T2 construct: purchased Creative BioMart CA12-261H
T2 sequence (O43570 25-354): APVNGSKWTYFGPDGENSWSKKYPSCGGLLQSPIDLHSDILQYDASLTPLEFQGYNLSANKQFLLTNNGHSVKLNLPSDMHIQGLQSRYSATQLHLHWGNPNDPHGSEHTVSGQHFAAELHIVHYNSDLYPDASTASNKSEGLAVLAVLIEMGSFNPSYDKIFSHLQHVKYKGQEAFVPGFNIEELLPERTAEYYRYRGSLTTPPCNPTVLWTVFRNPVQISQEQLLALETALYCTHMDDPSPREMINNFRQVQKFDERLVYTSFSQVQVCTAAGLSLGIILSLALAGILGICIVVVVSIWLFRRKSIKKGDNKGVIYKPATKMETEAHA
The assay is described as follows: Surface Plasmon Resonance (SPR) binding kinetics to recombinant human CA-XII (Biacore 8K, single-cycle kinetics, 1:1 binding model). As to conditions: pH 7.4, read-out: CAXII KD. In a few lines:
as §1
(In SPR one partner is held on a chip, and binding of the other changes the refractive index at the surface.)

Structures are written as SMILES. Like-named read-outs stand apart in the source and are kept apart here. Where only a bound is given, the exact number is not on record here.

Regarding `CC(CCCC(=O)N1CCC(C(=O)O)(C(=O)NCC(=O)NC2(C(=O)NCCn3cc(C45CC(C(=O)Nc6nnc(S(N)(=O)=O)s6)(C4)C5)nn3)CCN(C(=O)CN3CCN(CC(=O)O)CCN(CC(=O)O)CCN(CC(=O)O)CC3)CC2)CC1)(c1ccc(O)cc1)c1ccc(O)cc1.[Lu+3]` (single isomer, unassigned) [Compound 117.4], the dissociation constant (Kd) – broadly, a measure of binding affinity in units of concentration – at human CA-IX (Chelated Metal: Lu-175) is 1 to 2.5 nM; on human CA-XII (Chelated Metal: Lu-175, 25° C.), > 10 nM.
On to `NS(=O)(=O)c1nnc(NC(=O)C23CC(c4cn(CCNC(=O)[C@@H]5CN(C(=O)CN6CCN(CC(=O)O)CCN(CC(=O)O)CCN(CC(=O)O)CC6)CCN5C(=O)CNC(=O)C5(C(=O)O)CCN(C(=O)Cc6n[nH]c7ccc(F)cc67)CC5)nn4)(C2)C3)s1.[Lu+3]` [Compound 112.15], for which the dissociation constant (Kd) is 1 to 2.5 nM on human CA-IX (Chelated Metal: Lu-175) and > 10 nM on human CA-XII (Chelated Metal: Lu-175, 25° C.).
The like results for `NS(=O)(=O)c1nnc(NC(=O)C23CC(c4cn(CCNC(=O)[C@@H]5CN(C(=O)CN6CCN(CC(=O)O)CCN(CC(=O)O)CCN(CC(=O)O)CC6)CCN5C(=O)C[C@H](NC(=O)C[C@H](NC(=O)c5ccc(C6CC6)cc5)C(=O)O)C(=O)O)nn4)(C2)C3)s1.[Lu+3]` [Compound 109.1] were, in that order, < 1 nM and 2.5 to 10 nM.
The like results for `CC(CCC(=O)N1CCNC[C@H]1C(=O)N[C@@H](CC(=O)N1CCN(C(=O)CN2CCN(CC(=O)O)CCN(CC(=O)O)CCN(CC(=O)O)CC2)C[C@@H]1C(=O)NCCn1cc(C23CC(C(=O)Nc4nnc(S(N)(=O)=O)s4)(C2)C3)nn1)C(N)=O)(c1ccc(O)cc1)c1ccc(O)cc1.[Lu+3]` [Compound 108.3] were, in that order, 2.5 to 10 nM and > 10 nM.
Consider `CC(CCCC(=O)N1CCC(C(N)=O)(C(=O)NCC(=O)N2CCN(C(=O)CCOCCOCCOCCOCCOCCOCCOCCOCCNC(=O)CN3CCN(CC(=O)O)CCN(CC(=O)O)CCN(CC(=O)O)CC3)C[C@H]2C(=O)NCCn2cc(C34CC(C(=O)Nc5nnc(S(N)(=O)=O)s5)(C3)C4)nn2)CC1)(c1ccc(O)cc1)c1ccc(O)cc1.[Lu+3]` [Compound 129.1], for which the Kd at human CA-IX (Chelated Metal: Lu-175) is < 1 nM; at human CA-XII (Chelated Metal: Lu-175, 25° C.) it was > 10 nM.
The like results for `CC(CCCC(=O)N1CCC(C(=O)O)(C(=O)NCC(=O)N2CCN(C(=O)CN3CCN(CC(=O)O)CCN(CC(=O)O)CCN(CC(=O)O)CC3)C[C@@H]2C(=O)NCCn2cc(C34CC(C(=O)Nc5nnc(S(N)(=O)=O)s5)(C3)C4)nn2)CC1)(c1ccc(O)cc1)c1ccc(O)cc1.[Lu+3]` [Compound 107.6] were, in that order, < 1 nM and > 10 nM.
The like results for `CC(CCCC(=O)N1CCOC[C@H]1C(=O)N[C@@H](CC(=O)N1CCN(C(=O)CN2CCN(CC(=O)O)CCN(CC(=O)O)CCN(CC(=O)O)CC2)C[C@H]1C(=O)NCCn1cc(C23CC(c4cn5nc(S(N)(=O)=O)sc5n4)(C2)C3)nn1)C(=O)O)(c1ccc(O)cc1)c1ccc(O)cc1.[Lu+3]` [Compound 107.48] were, in that order, < 1 nM and 1 to 2.5 nM.
The like results for `CC[C@H]1CN(CC(=O)O)[C@@H](CC)CN(CC(=O)N2CCN(C(=O)C[C@H](NC(=O)C[C@H](NC(=O)CCC(C)(c3ccc(O)cc3)c3ccc(O)cc3)C(=O)O)C(=O)O)[C@H](C(=O)NCCn3cc(C45CC(C(=O)Nc6nnc(S(N)(=O)=O)s6)(C4)C5)nn3)C2)[C@@H](CC)CN(CC(=O)O)[C@@H](CC)CN1CC(=O)O.[Lu+3]` [Compound 128] were, in that order, < 1 nM and > 10 nM.
Regarding `CC(CC(=O)N1CCC(C(=O)O)(C(=O)NCC(=O)N[C@@H](CCCCn2cc(CCCC(=O)Nc3nnc(S(N)(=O)=O)s3)nn2)C(=O)NCCOCCOCCNC(=O)CN2CCN(CC(=O)O)CCN(CC(=O)O)CCN(CC(=O)O)CC2)CC1)(c1ccc(O)cc1)c1ccc(O)cc1.[Lu+3]` [Compound 102.4], the dissociation constant (Kd) on human CA-IX (Chelated Metal: Lu-175) is < 1 nM; on human CA-XII (Chelated Metal: Lu-175, 25° C.), 2.5 to 10 nM.
The like results for `CC(CCCC(=O)N1CCC(C(N)=O)(C(=O)NCC(=O)NC2(C(=O)NCCn3cc(COc4ccc5nc(S(N)(=O)=O)sc5c4)nn3)CCN(C(=O)CN3CCN(CC(=O)O)CCN(CC(=O)O)CCN(CC(=O)O)CC3)CC2)CC1)(c1ccc(O)cc1)c1ccc(O)cc1.[Lu+3]` [Compound 117.8] were, in that order, < 1 nM and > 10 nM.
As for `CC(CCCC(=O)N1CCOC[C@H]1C(=O)N[C@@H](CC(=O)N1CCN(C(=O)CCOCCOCCOCCOCCN(CCOCCOCCOCCOCCC(=O)N2CCN(C(=O)C[C@H](NC(=O)[C@@H]3COCCN3C(=O)CCCC(C)(c3ccc(O)cc3)c3ccc(O)cc3)C(=O)O)[C@@H](C(=O)NCCn3cc(C45CC(C(=O)Nc6nnc(S(N)(=O)=O)s6)(C4)C5)nn3)C2)C(=O)CNC(=O)CN2CCN(CC(=O)O)CCN(CC(=O)O)CCN(CC(=O)O)CC2)C[C@@H]1C(=O)NCCn1cc(C23CC(C(=O)Nc4nnc(S(N)(=O)=O)s4)(C2)C3)nn1)C(=O)O)(c1ccc(O)cc1)c1ccc(O)cc1.[Lu+3]` [Compound 131.3], the dissociation constant Kd was < 1 nM on human CA-IX (Chelated Metal: Lu-175) and < 1 nM on human CA-XII (Chelated Metal: Lu-175, 25° C.).
Turning to `CC(CCC(=O)N1CCOC[C@H]1C(=O)N[C@@H](CC(=O)N1CCN(C(=O)CN2CCN(CC(=O)O)CCN(CC(=O)O)CCN(CC(=O)O)CC2)C[C@@H]1C(=O)NCCn1cc(C23CC(C(=O)Nc4nnc(S(N)(=O)=O)s4)(C2)C3)nn1)C(=O)O)(c1ccc(O)cc1)c1ccc(O)cc1.[Lu+3]` [Compound 107.8], the Kd was 1 to 2.5 nM on human CA-IX (Chelated Metal: Lu-175) and > 10 nM at human CA-XII (Chelated Metal: Lu-175, 25° C.).
The like results for `CC(CCC(=O)N[C@@H](CC(=O)N[C@@H](CC(=O)N[C@@H](CCCCn1cc([C@H]2CC[C@H](C(=O)Nc3nnc(S(N)(=O)=O)s3)CC2)nn1)C(=O)NCCOCCOCCNC(=O)CN1CCN(CC(=O)O)CCN(CC(=O)O)CCN(CC(=O)O)CC1)C(=O)O)C(=O)O)(c1ccc(O)cc1)c1ccc(O)cc1.[Lu+3]` [Compound 100.4] were, in that order, < 1 nM and 2.5 to 10 nM.
Consider `CC(CCC(=O)N[C@@H](CC(=O)N[C@@H](CC(=O)N1CCN(C(=O)CN2CCN(CC(=O)O)CCN(CC(=O)O)CCN(CC(=O)O)CC2)C[C@H]1C(=O)NCCn1cc(-c2ccc(C(=O)Nc3nnc(S(N)(=O)=O)s3)cc2Cl)nn1)C(=O)O)C(=O)O)(c1ccc(O)cc1)c1ccc(O)cc1.[Lu+3]` [Compound 107.36], for which the Kd was < 1 nM on human CA-IX (Chelated Metal: Lu-175) and > 10 nM at human CA-XII (Chelated Metal: Lu-175, 25° C.).
The like results for `NS(=O)(=O)c1nnc(NC(=O)C23CC(c4cn(CCNC(=O)[C@@H]5CN(C(=O)CN6CCN(CC(=O)O)CCN(CC(=O)O)CCN(CC(=O)O)CC6)CCN5C(=O)C[C@H](NC(=O)C[C@H](NC(=O)c5ccc(C6CC6)nn5)C(=O)O)C(=O)O)nn4)(C2)C3)s1.[Lu+3]` [Compound 109.4] were, in that order, < 1 nM and 2.5 to 10 nM.
The like results for `CC(CCCC(=O)N1CCC(C(N)=O)(C(=O)NCC(=O)NC2CCN(C(=O)CCOCCOCCOCCOCCN(CCOCCOCCOCCOCCC(=O)N3CCC(NC(=O)CNC(=O)C4(C(N)=O)CCN(C(=O)CCCC(C)(c5ccc(O)cc5)c5ccc(O)cc5)CC4)C(C(=O)NCCn4cc(C56CC(C(=O)Nc7nnc(S(N)(=O)=O)s7)(C5)C6)nn4)C3)C(=O)CNC(=O)CN3CCN(CC(=O)O)CCN(CC(=O)O)CCN(CC(=O)O)CC3)CC2C(=O)NCCn2cc(C34CC(C(=O)Nc5nnc(S(N)(=O)=O)s5)(C3)C4)nn2)CC1)(c1ccc(O)cc1)c1ccc(O)cc1.[Lu+3]` (stereo not drawn) [Compound 131.7] were, in that order, < 1 nM and 1 to 2.5 nM.
The like results for `NS(=O)(=O)c1nnc(NC(=O)C23CC(c4cn(CCNC(=O)[C@@H]5CN(C(=O)CN6CCN(CC(=O)O)CCN(CC(=O)O)CCN(CC(=O)O)CC6)CCN5C(=O)C[C@H](NC(=O)C[C@H](NC(=O)c5ccc(C(F)(F)F)cc5)C(=O)O)C(=O)O)nn4)(C2)C3)s1.[Lu+3]` [Compound 109.35] were, in that order, 1 to 2.5 nM and 2.5 to 10 nM.
For the molecule `NC(=O)C1(C(=O)NCC(=O)N2CCN(C(=O)CN3CCN(CC(=O)O)CCN(CC(=O)O)CCN(CC(=O)O)CC3)C[C@H]2C(=O)NCCn2cc(C34CC(C(=O)Nc5nnc(S(N)(=O)=O)s5)(C3)C4)nn2)CCN(C(=O)Cn2nc(-c3ccc(O)cc3)c3ccc(O)cc32)CC1.[Lu+3]` [Compound 107.37], the Kd on human CA-IX (Chelated Metal: Lu-175) was > 10 nM; at human CA-XII (Chelated Metal: Lu-175, 25° C.), > 10 nM.
As to `CC(CCCC(=O)N[C@@H](CC(=O)N[C@@H](CC(=O)N1CCN(C(=O)CN2CCN(CC(=O)O)CCN(CC(=O)O)CCN(CC(=O)O)CC2)C[C@H]1C(=O)NCCn1cc(C23CC(C(=O)Nc4nnc(S(N)(=O)=O)s4)(C2)C3)nn1)C(=O)O)C(=O)O)(c1ccc(O)cc1)c1ccc(O)cc1` [Compound 109.62], the Kd at human CA-IX (Chelated Metal: None) was < 1 nM; at human CA-XII (Chelated Metal: None, 25° C.), > 10 nM. In addition, the “Ratio (CAXII/CAIX)” value at human CA-IX (KD ratio CAXII/CAIX, Chelated Metal: None) is recorded as “*** (10 < *** ≤ 50)”.
For the molecule `NS(=O)(=O)c1nnc(NC(=O)C23CC(c4cn(CCNC(=O)[C@@H]5CN(C(=O)CN6CCN(CC(=O)O)CCN(CC(=O)O)CCN(CC(=O)O)CC6)CCN5C(=O)C[C@H](Nc5ncc(C(=O)NCCc6ccc(C(F)(F)F)cc6)cn5)C(=O)O)nn4)(C2)C3)s1.[Lu+3]` [Compound 111.7], the Kd at human CA-IX (Chelated Metal: Lu-175) was 2.5 to 10 nM; on human CA-XII (Chelated Metal: Lu-175, 25° C.) it was > 10 nM.
The like results for `NS(=O)(=O)c1nnc(NC(=O)C23CCC(c4cn(CCNC(=O)[C@@H]5CN(C(=O)CN6CCN(CC(=O)O)CCN(CC(=O)O)CCN(CC(=O)O)CC6)CCN5C(=O)CC[C@H](NC(=O)C[C@H](NC(=O)CCC5CCCCC5)C(=O)O)C(=O)O)nn4)(CC2)CC3)s1.[Lu+3]` [Compound 109.44] were, in that order, < 1 nM and < 1 nM.
The like results for `NS(=O)(=O)c1nnc(NC(=O)C23CC(c4cn(CCNC(=O)[C@@H]5CN(C(=O)CN6CCN(CC(=O)O)CCN(CC(=O)O)CCN(CC(=O)O)CC6)CCN5C(=O)CNC(=O)C5(C(=O)O)CCN(C(=O)c6ccc(C7CC7)cc6)CC5)nn4)(C2)C3)s1.[Lu+3]` [Compound 112.9] were, in that order, < 1 nM and > 10 nM.
